Measured values taken from US20080318268A1, “Devices and Methods for the Selection of Agents with Efficacy Against Biofilm” (priority 2005, published 2008).
Entries after “also recorded” stand apart in the source; their conditions may differ. Read-outs that look alike come from different tables or passages of the source.

What was measured:
Assay type in all cases: cell-based
[1] = system: planktonic Candida cells; assay: Planktonic antifungal sensitivity of Candida spp.; settings: all species tested
Method: (§1) Three clinical isolates of Candida were used in this study, including one albicans and two non-albicans species. C. albicans ATCC 14053 was obtained from the University Of Calgary, Department Of Biological Sciences. C. tropicalis 99916 and C. glabrata 14326 were obtained from the dialysate of patients undergoing continued ambulatory peritoneal dialysis (CAPD). Aspergillus fumigatus was also tested.
(§2) Biofilm susceptibility testing uses the pegged lid of the assembly, now containing biofilms formed after rocking in the tray for 24 hour. Each peg on the lid was gently washed once in 200 μl of phosphate buffered saline solution (PBSS) in a 96-well microtiter plate (Falcon). The pegged lid was then transferred to another 96 well microtiter plate containing 2 fold dilutions antifungal agent in 200 μl of RPMI 1640 (Sigma, St. Louis, Mo.) or RPMI 1640 containing 1% DMSO (see test drug section). After the pegs were exposed to the drugs for 24 hours, the pegged lid was removed and gently rinsed twice in saline. The pegged lid was then placed on a 96 well plate containing RPMI 1640 recovery medium. The pegs were sonicated for 5 minutes (Candida spp.) or 7 minutes (Aspergillus) in an ultrasonicator to dislodge adherent cells into the recovery medium. Aliquots of 20 μl of the recovery medium were spot plated on SDA (Candida spp) or Rose Bengal Agar (A. fumigatus) to obtain the MBEC. The assembly was also used to determine the minimum inhibitory concentration (MIC) and minimum fungicidal concentration (MFC). The turbidity of the wells that contained the antibiotic and planktonic cells which were shed from the biofilm was measured at 650 nm to obtain the MIC. A 20 μl sample from each well was also spot plated onto Sabouraud Dextrose agar (Candida spp) or Rose Bengal Agar (A. fumigatus) to obtain the MFC.
Minimum Inhibitory Concentrations (MIC) and Minimum Fungicidal Concentrations (MFC) were determined according to the guidelines of the National Committee for Clinical laboratory Standards (NCCLS). Briefly, Candida sp. were maintained on polystyrene spheres at −70° C. until plating. These organisms were streaked onto Sabouraud Dextrose agar (Microbiologie) plates 24 hours before test initiation. The 24 hour colonies were picked from the agar plates and placed in Muellar-Hinton Broth (MHB, Microbiologie) such that the turbidity matched a McFarland standard of 0.5. This was then diluted 1:10 in MHB to obtain a suspension of approximately 1×10^5 to 5×10^5 CFU/ml. A 5 μl volume of this suspension was added to wells containing 200 μl of antifungal agent serially diluted in RPMI 1640 media (Sigma) in a 96 well microtiter plate (Nunclon). A. fumigatus was maintained as a spore suspension at 4° C. until testing. The spore suspension (50 μl) was diluted into 250 ml of TSB, and 5 μl of this suspension was added to each test well containing dilution of antifungal agent as above.
The test wells were then incubated at 37° C. for 24 hours with the antifungal drugs. MICs for Candida were obtained after incubation by reading the turbidity at 650 nm on a microtiter plate reader (Softmax, VWR). A 20 μl aliquot of each well was also plated (SDA) and MFCs obtained from them after 24 hours incubation at 37° C. MFCs were determined for Aspergillus by plating 100 μl from each well onto Rose Bengal Agar, followed by spreading with a sterile glass spreader. The plated organisms were maintained at 25° C. for three days before colony enumeration.
Drugs tested. Itraconazole, Fluconazole, and Ketoconazole were obtained from Janssen Pharmaceuticals in Brussels, Belgium. Nystatin 5-Fluorocytosine, Griseofulvin, Amphotericin B and Polymyxin B were obtained from Sigma Chemical Co, St. Louis, Mo. 5-Fluorocytosine, polymyxin B sulphate and nystatin were dissolved in double-distilled water to a concentration of 10.24 mg/ml and diluted in the test wells through a range of 1024 μg/ml to 0.125 μg/ml in RPMI. […]

[2] = system: Pseudomonas aeruginosa (Ps) planktonic bacteria; assay: MBEC assay, planktonic Ps isolates (Example 5)
[3] = system: Pseudomonas aeruginosa (Ps) biofilm; assay: MBEC assay, Ps biofilms (Example 5); settings: number of resistant isolates; 12 isolates from Cystic Fibrosis patients; exposed 24 hours
[4] = system: planktonic P. aeruginosa; assay: Pseudomonas aeruginosa biofilm assay kit, planktonic MIC reading of challenge plate (Example 8); settings: challenge 24 hours at 35° C.; breakpoint concentrations
[5] = system: P. aeruginosa biofilm; assay: Pseudomonas aeruginosa biofilm assay kit, biofilm MBEC reading of recovery plate (Example 8); settings: challenge 24 hours at 35° C.; recovery 20 to 24 hours; breakpoint concentrations
[6] = system: Staphylococcus aureus (Staph) planktonic bacteria; assay: MBEC assay, planktonic Staph isolates (Example 5); settings: number of resistant isolates; 12 isolates from device associated infections; exposed 24 hours
[7] = system: planktonic Staphylococcus aureus; assay: Staphylococcus test plate, planktonic forms (Example 9); settings: breakpoint concentrations, number in the label is the concentration tested
[8] = system: Staphylococcus aureus (Staph) biofilm; assay: MBEC assay, Staph biofilms (Example 5); settings: number of resistant isolates; 12 isolates from device associated infections; exposed 24 hours
[9] = system: Staphylococcus aureus biofilm; assay: Staphylococcus test plate, biofilm forms (Example 9); settings: breakpoint concentrations; number in the label is the concentration tested
[10] = system: Candida biofilms; assay: Minimum biofilm eradication concentration assay, Candida spp. biofilms; settings: biofilm (sessile) Candida
Method: as §1
Biofilm formation and measurement of antimicrobial sensitivity of Candida and Aspergillus biofilms were performed using an assembly of the present invention. The device features a microtiter plate lid with 96 pegs or projections distributed on the lid. Each peg provided the surface for microorganism to adhere, colonize and form a uniform biofilm. The pegs fit precisely into the wells of a standard 96-well microtiter plate. The lid was used in conjunction with a base having special troughs for growing, washing, and incubating fungi. Colonies of Candida sp. were picked from 24 hour cultures on Sabouraud Dextrose agar (SDA) (BBL Microbiological Systems, Cockeysville, Md.) and placed into Mueller-Hinton Broth (MHB) (Difco Laboratories, Detroit Mich.) such that the suspension matched a McFarland standard of 1.0. This suspension was then diluted 1:30 in MHB, and 25 ml were pipetted into the trough chamber of the base. The closed assembly (lid with pegs positioned on the base) was placed on a Hoeffer Red Rocker (VWR, Scientific) set to rock the plates 3.5 cycles per minute in a 37° C. incubator. C. albicans and C. tropicalis were incubated aerobically, while C. glabrata was incubated in 10% CO2. It was determined in preliminary experiments that C. glabrata required 10% CO2 atmosphere for biofilms to form.
as §2
Drugs tested. Itraconazole, Fluconazole, and Ketoconazole were obtained from Janssen Pharmaceuticals in Brussels, Belgium. Nystatin 5-Fluorocytosine, Griseofulvin, Amphotericin B and Polymyxin B were obtained from Sigma Chemical Co, St. Louis, Mo. […]

[11] = number of resistant isolates, 12 isolates from Cystic Fibrosis patients, exposed 24 hours

Row | Compound | effectiveness in killing planktonic Candida cells [1] | Ps resistance to individual antibiotics and antibiotic combinations, Planktonic [2, 11] | Ps resistance to individual antibiotics and antibiotic combinations, Biofilm [3] | Number of P. aeruginosa isolates resistant to individual antibiotics and antibiotic combinations, Planktonic [4] | Number of P. aeruginosa isolates resistant to individual antibiotics and antibiotic combinations, Biofilm [5] | further results
1 | Nc1nc(=O)[nH]cc1F [5-fluorocytosine, 5-Fluorocytosine] | effective | – | – | – | – | –
2 | NCC[C@H](O)C(=O)N[C@@H]1C[C@H](N)[C@@H](O[C@H]2O[C@H](CN)[C@@H](O)[C@H](O)[C@H]2O)[C@H](O)[C@H]1O[C@H]1O[C@H](CO)[C@@H](O)[C@H](N)[C@H]1O [AK, amikacin] | – | 8 | 11 | 8 | 11 | –
3 | C[C@H]1[C@H](NC(=O)/C(=N\OC(C)(C)C(=O)O)c2csc(N)n2)C(=O)N1S(=O)(=O)O [AZTR, aztreonam] | – | – | – | 0 | – | Ps resistance to individual antibiotics and antibiotic combinations, Planktonic [2]: 0
4 | CC(C)(O/N=C(\C(=O)N[C@@H]1C(=O)N2C(C(=O)[O-])=C(C[n+]3ccccc3)CS[C@H]12)c1csc(N)n1)C(=O)O [CFTZ, ceftazidime] | – | 3 | 12 | 3 | 12 | –
5 | Cc1nnc(SCC2=C(C(=O)O)N3C(=O)[C@@H](NC(=O)Cn4cnnn4)[C@H]3SC2)s1 [CFZ, cefazolin] | – | – | – | – | – | Staph resistance to individual antibiotics and antibiotic combinations, Planktonic [6]: 2; Number of Staphylococcus aureus isolates resistant to individual antibiotics and antibiotic combinations, Planktonic ([7]; listed as CFZ4): 4; Number of Staphylococcus aureus isolates resistant to individual antibiotics and antibiotic combinations, Planktonic ([7]; listed as CFZ8): 6
6 | O=C(O)c1cn(C2CC2)c2cc(N3CCNCC3)c(F)cc2c1=O [CIPRO, ciprofloxacin] | – | – | – | 4 | – | Staph resistance to individual antibiotics and antibiotic combinations, Planktonic [6]: 10; Ps resistance to individual antibiotics and antibiotic combinations, Planktonic [2]: 4; Number of Staphylococcus aureus isolates resistant to individual antibiotics and antibiotic combinations, Planktonic [7]: 7
7 | CCC[C@@H]1C[C@@H](C(=O)N[C@@H]([C@H]2O[C@H](SC)[C@H](O)[C@@H](O)[C@H]2O)[C@H](C)Cl)N(C)C1 [CLIN, clindamycin] | – | – | – | – | – | Staph resistance to individual antibiotics and antibiotic combinations, Planktonic [6]: 9; Number of Staphylococcus aureus isolates resistant to individual antibiotics and antibiotic combinations, Planktonic ([7]; listed as CLI1): 8; Number of Staphylococcus aureus isolates resistant to individual antibiotics and antibiotic combinations, Planktonic ([7]; listed as CLI4): 5
8 | Cc1onc(-c2ccccc2Cl)c1C(=O)N[C@@H]1C(=O)N2[C@@H]1SC(C)(C)[C@@H]2C(=O)O [CLOX, cloxacillin] | – | – | – | – | – | Staph resistance to individual antibiotics and antibiotic combinations, Planktonic [6]: 3; Staph resistance to individual antibiotics and antibiotic combinations, Biofilm [8]: 12; Number of Staphylococcus aureus isolates resistant to individual antibiotics and antibiotic combinations, Planktonic [7]: 2; Number of Staphylococcus aureus isolates resistant to individual antibiotics and antibiotic combinations, Biofilm [9]: 12
9 | COC1=CC(=O)C[C@@H](C)[C@]12Oc1c(Cl)c(OC)cc(OC)c1C2=O [Griseofulvin] | ineffective | – | – | – | – | effectiveness against Candida growing as a biofilm [10]: ineffective
10 | C[C@@H](O)[C@H]1C(=O)N2C(C(=O)O)=C(SCCN=CN)C[C@H]12 [IMP, imipenem] | – | 12 | 12 | 12 | 12 | –
11 | NC[C@H]1O[C@H](O[C@H]2[C@H](O)[C@@H](O[C@H]3O[C@H](CO)[C@@H](O)[C@H](N)[C@H]3O)[C@H](N)C[C@@H]2N)[C@H](N)C[C@@H]1O [TB, tobramycin] | – | 3 | 12 | 3 | 12 | –
12 | CC(=O)N1CCN(c2ccc(OCC3COC(Cn4ccnc4)(c4ccc(Cl)cc4Cl)O3)cc2)CC1 (centres unmarked) [ketoconazole, Ketoconazole] | effective | – | – | – | – | –
13 | C[C@@H]1[C@H](O)[C@@H](C)/C=C/C=C/CC/C=C/C=C/C=C/C=C/C(O[C@H]2O[C@H](C)[C@@H](O)[C@H](N)[C@@H]2O)CC2O[C@](O)(CC(O)C(O)CCC(O)CC(O)CC(O)CC(=O)O[C@H]1C)CC(O)C2C(=O)O (some centres unmarked) [nystatin, Nystatin] | effective | – | – | – | – | effectiveness against Candida growing as a biofilm [10]: effective; also recorded: most effective agents
14 | Colistin [CLO] | – | 2 | 12 | 2 | 12 | –
15 | Polymyxin B | ineffective | – | – | – | – | effectiveness against Candida growing as a biofilm [10]: ineffective
